In the supplement of paper PMC10307832:

Experiments:
Experiment in all cases: relative viability (nuclei count vs DMSO), 5 days (fraction); higher = more cells survive
COR-L23 = system: COR-L23
Outline: (§1)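 Lung cancer cell lines in 1536-well plates got either a single drug or a fixed anchor-drug dose together with five library-drug doses (not always all listed) in √10 steps, by pin tool, on the day after seeding. Nuclei were counted after 5 days, and relative viability is the treated-to-vehicle ratio of nuclei counts. Values are medians of duplicate plates.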

EMC-BAC-2 = system: EMC-BAC-2
Outline: as §1

EPLC-272H = system: EPLC-272H
Outline: as §1

H3255 = system: H3255
Outline: as §1

HCC-44 = system: HCC-44
Outline: as §1

HCC-827 = system: HCC-827
Outline: as §1

LU99A = system: LU99A
Outline: as §1

NCI-H1395 = system: NCI-H1395
Outline: as §1

NCI-H1563 = system: NCI-H1563
Outline: as §1

NCI-H1651 = system: NCI-H1651
Outline: as §1

**Q.** With Cc1sc2c(c1C)C(c1ccc(Cl)cc1)=N[C@@H](CC(=O)OC(C)(C)C)c1nnc(C)n1-2 [JQ1] + CS(=O)(=O)CCNCc1ccc(-c2ccc3ncnc(Nc4ccc(OCc5cccc(F)c5)c(Cl)c4)c3c2)o1 [Lapatinib] (partner 2 µM) as the compound, how does the relative viability (COR-L23; first compound 0.04 µM) read?
**A.** The relative viability was 0.926.

**Q.** What about the relative viability (COR-L23; first compound 0.1265 µM) of the same compound?
**A.** Its relative viability is 0.782.

**Q.** What about the relative viability (COR-L23; first compound 0.4 µM) of the same compound?
**A.** Its relative viability is 0.942.

**Q.** What about the relative viability (COR-L23; first compound 1.265 µM) of the same compound?
**A.** The relative viability was 0.773.

**Q.** What about the relative viability (COR-L23; first compound 4 µM) of the same compound?
**A.** Its relative viability is 0.623.

**Q.** What about the relative viability (EMC-BAC-2; first compound 0.04 µM) of the same compound?
**A.** The relative viability was 0.841.

**Q.** What about the relative viability (EMC-BAC-2; first compound 0.1265 µM) of the same compound?
**A.** The relative viability was 0.905.

**Q.** And the relative viability (EMC-BAC-2; first compound 0.4 µM)?
**A.** The relative viability was 0.949.

**Q.** What about the relative viability (EMC-BAC-2; first compound 1.265 µM) of the same compound?
**A.** Its relative viability is 0.551.

**Q.** And the relative viability (EMC-BAC-2; first compound 4 µM)?
**A.** The relative viability was 0.495.

**Q.** And the relative viability (EPLC-272H; first compound 0.04 µM)?
**A.** The relative viability was 0.937.

**Q.** And the relative viability (EPLC-272H; first compound 0.1265 µM)?
**A.** Its relative viability is 0.98.

**Q.** And the relative viability (EPLC-272H; first compound 0.4 µM)?
**A.** Its relative viability is 0.994.

**Q.** What about the relative viability (EPLC-272H; first compound 1.265 µM) of the same compound?
**A.** The relative viability was 0.519.

**Q.** And the relative viability (EPLC-272H; first compound 4 µM)?
**A.** Its relative viability is 0.5.

**Q.** What about the relative viability (H3255; first compound 0.04 µM) of the same compound?
**A.** Its relative viability is 0.226.

**Q.** What about the relative viability (H3255; first compound 0.1265 µM) of the same compound?
**A.** The relative viability was 0.251.

**Q.** And the relative viability (H3255; first compound 0.4 µM)?
**A.** Its relative viability is 0.248.

**Q.** And the relative viability (H3255; first compound 1.265 µM)?
**A.** The relative viability was 0.169.

**Q.** What about the relative viability (H3255; first compound 4 µM) of the same compound?
**A.** The relative viability was 0.227.

**Q.** And the relative viability (HCC-44; first compound 0.04 µM)?
**A.** Its relative viability is 1.07.

**Q.** And the relative viability (HCC-44; first compound 0.1265 µM)?
**A.** The relative viability was 0.849.

**Q.** And the relative viability (HCC-44; first compound 0.4 µM)?
**A.** Its relative viability is 0.795.

**Q.** And the relative viability (HCC-44; first compound 1.265 µM)?
**A.** The relative viability was 0.488.

**Q.** And the relative viability (HCC-44; first compound 4 µM)?
**A.** The relative viability was 0.532.

**Q.** And the relative viability (HCC-827; first compound 0.04 µM)?
**A.** The relative viability was 0.206.

**Q.** And the relative viability (HCC-827; first compound 0.4 µM)?
**A.** The relative viability was 0.21.

**Q.** What about the relative viability (HCC-827; first compound 1.265 µM) of the same compound?
**A.** Its relative viability is 0.189.

**Q.** And the relative viability (HCC-827; first compound 4 µM)?
**A.** Its relative viability is 0.202.

**Q.** What about the relative viability (LU99A; first compound 0.04 µM) of the same compound?
**A.** Its relative viability is 1.14.

**Q.** What about the relative viability (LU99A; first compound 0.1265 µM) of the same compound?
**A.** Its relative viability is 0.933.

**Q.** What about the relative viability (LU99A; first compound 0.4 µM) of the same compound?
**A.** The relative viability was 0.902.

**Q.** And the relative viability (LU99A; first compound 1.265 µM)?
**A.** The relative viability was 0.316.

**Q.** What about the relative viability (LU99A; first compound 4 µM) of the same compound?
**A.** The relative viability was 0.217.

**Q.** What about the relative viability (NCI-H1395; first compound 0.04 µM) of the same compound?
**A.** Its relative viability is 0.931.

**Q.** What about the relative viability (NCI-H1395; first compound 0.1265 µM) of the same compound?
**A.** The relative viability was 0.733.

**Q.** And the relative viability (NCI-H1395; first compound 0.4 µM)?
**A.** Its relative viability is 0.935.

**Q.** And the relative viability (NCI-H1395; first compound 1.265 µM)?
**A.** Its relative viability is 0.492.

**Q.** What about the relative viability (NCI-H1395; first compound 4 µM) of the same compound?
**A.** Its relative viability is 0.487.

**Q.** What about the relative viability (NCI-H1563; first compound 0.04 µM) of the same compound?
**A.** The relative viability was 0.89.

**Q.** What about the relative viability (NCI-H1563; first compound 0.1265 µM) of the same compound?
**A.** Its relative viability is 0.72.

**Q.** What about the relative viability (NCI-H1563; first compound 0.4 µM) of the same compound?
**A.** The relative viability was 0.662.

**Q.** And the relative viability (NCI-H1563; first compound 1.265 µM)?
**A.** The relative viability was 0.717.

**Q.** What about the relative viability (NCI-H1563; first compound 4 µM) of the same compound?
**A.** Its relative viability is 0.771.

**Q.** What about the relative viability (NCI-H1651; first compound 0.04 µM) of the same compound?
**A.** Its relative viability is 0.656.

**Q.** What about the relative viability (NCI-H1651; first compound 0.1265 µM) of the same compound?
**A.** Its relative viability is 0.706.

**Q.** And the relative viability (NCI-H1651; first compound 0.4 µM)?
**A.** Its relative viability is 0.481.

**Q.** What about the relative viability (NCI-H1651; first compound 1.265 µM) of the same compound?
**A.** The relative viability was 0.365.
